How the values were obtained:
Assay in all cases: IC50 for competition of protein binding to Kinobeads
Details in all cases: assay detail: Kinobeads competition in P. falciparum blood-stage lysate
UniProt Q8IDF0 = target: UniProt Q8IDF0
UniProt Q9U0K8 = target: UniProt Q9U0K8
UniProt Q8I5B6 = target: UniProt Q8I5B6
UniProt Q8IB44 = target: UniProt Q8IB44
UniProt Q8IJD0 = target: UniProt Q8IJD0
UniProt Q8ILQ8 = target: UniProt Q8ILQ8
UniProt Q8I603 = target: UniProt Q8I603
UniProt Q8IHY0 = target: UniProt Q8IHY0
UniProt Q8I3X2 = target: UniProt Q8I3X2
UniProt Q8IDR5 = target: UniProt Q8IDR5
UniProt Q9TY96 = target: UniProt Q9TY96
Chain of UniProt Q9TY96 (Q9TY96 whole entry): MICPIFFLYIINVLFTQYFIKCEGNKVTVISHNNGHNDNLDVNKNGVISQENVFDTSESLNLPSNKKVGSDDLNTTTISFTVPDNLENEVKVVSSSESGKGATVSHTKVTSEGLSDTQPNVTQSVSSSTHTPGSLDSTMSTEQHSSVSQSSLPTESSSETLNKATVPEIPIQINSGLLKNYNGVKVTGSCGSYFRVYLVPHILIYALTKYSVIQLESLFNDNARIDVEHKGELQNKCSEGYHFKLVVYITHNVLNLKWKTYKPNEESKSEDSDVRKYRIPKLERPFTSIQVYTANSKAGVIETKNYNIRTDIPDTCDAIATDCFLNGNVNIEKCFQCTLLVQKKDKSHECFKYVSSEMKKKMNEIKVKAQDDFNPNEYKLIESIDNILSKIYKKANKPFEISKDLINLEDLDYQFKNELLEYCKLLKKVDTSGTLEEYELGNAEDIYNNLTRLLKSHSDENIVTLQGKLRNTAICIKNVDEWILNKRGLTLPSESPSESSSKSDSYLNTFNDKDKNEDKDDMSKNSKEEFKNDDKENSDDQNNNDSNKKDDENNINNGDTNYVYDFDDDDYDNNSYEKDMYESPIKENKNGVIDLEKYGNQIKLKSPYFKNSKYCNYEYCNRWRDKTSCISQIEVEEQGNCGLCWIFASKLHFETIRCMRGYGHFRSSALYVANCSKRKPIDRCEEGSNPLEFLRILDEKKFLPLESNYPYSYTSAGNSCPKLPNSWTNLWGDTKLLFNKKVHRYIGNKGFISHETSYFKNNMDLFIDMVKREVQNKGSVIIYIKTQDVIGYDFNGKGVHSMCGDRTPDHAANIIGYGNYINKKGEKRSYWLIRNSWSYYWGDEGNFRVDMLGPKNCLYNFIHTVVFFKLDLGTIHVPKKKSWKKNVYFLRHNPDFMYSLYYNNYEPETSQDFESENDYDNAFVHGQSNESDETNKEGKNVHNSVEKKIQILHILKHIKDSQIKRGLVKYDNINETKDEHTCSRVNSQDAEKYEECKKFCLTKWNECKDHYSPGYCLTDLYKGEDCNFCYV

UniProt O96260 = target: UniProt O96260
UniProt Q8ID85 = target: UniProt Q8ID85
A0A146LZZ4 = target: A0A146LZZ4
UniProt Q8IJI7 = target: UniProt Q8IJI7
UniProt C0H551 = target: UniProt C0H551
UniProt Q8IIH7 = target: UniProt Q8IIH7
UniProt Q8IK12 = target: UniProt Q8IK12
UniProt O96153 = target: UniProt O96153
UniProt Q8ID49 = target: UniProt Q8ID49
UniProt Q8IB60 = target: UniProt Q8IB60
UniProt Q8IJS7 = target: UniProt Q8IJS7
UniProt Q8IE09 = target: UniProt Q8IE09
UniProt Q8IJW4 = target: UniProt Q8IJW4
UniProt Q8I4X0 = target: UniProt Q8I4X0
Chain of UniProt Q8I4X0 (Q8I4X0 whole entry): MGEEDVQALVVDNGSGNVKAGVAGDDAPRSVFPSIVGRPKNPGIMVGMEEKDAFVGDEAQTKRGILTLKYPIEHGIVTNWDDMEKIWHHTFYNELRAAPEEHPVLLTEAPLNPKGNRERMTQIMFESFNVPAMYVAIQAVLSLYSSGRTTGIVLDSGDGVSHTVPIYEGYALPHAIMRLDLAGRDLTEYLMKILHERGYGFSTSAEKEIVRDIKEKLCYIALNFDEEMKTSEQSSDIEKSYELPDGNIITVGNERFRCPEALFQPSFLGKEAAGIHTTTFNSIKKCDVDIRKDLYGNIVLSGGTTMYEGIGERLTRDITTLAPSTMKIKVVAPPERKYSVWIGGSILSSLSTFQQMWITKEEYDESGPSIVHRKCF

UniProt Q8I3F1 = target: UniProt Q8I3F1
UniProt Q8IDZ9 = target: UniProt Q8IDZ9
UniProt Q8I616 = target: UniProt Q8I616
UniProt Q8IBN1 = target: UniProt Q8IBN1
UniProt Q8IC35 = target: UniProt Q8IC35
UniProt Q8IBS5 = target: UniProt Q8IBS5
Chain of UniProt Q8IBS5 (Q8IBS5 whole entry): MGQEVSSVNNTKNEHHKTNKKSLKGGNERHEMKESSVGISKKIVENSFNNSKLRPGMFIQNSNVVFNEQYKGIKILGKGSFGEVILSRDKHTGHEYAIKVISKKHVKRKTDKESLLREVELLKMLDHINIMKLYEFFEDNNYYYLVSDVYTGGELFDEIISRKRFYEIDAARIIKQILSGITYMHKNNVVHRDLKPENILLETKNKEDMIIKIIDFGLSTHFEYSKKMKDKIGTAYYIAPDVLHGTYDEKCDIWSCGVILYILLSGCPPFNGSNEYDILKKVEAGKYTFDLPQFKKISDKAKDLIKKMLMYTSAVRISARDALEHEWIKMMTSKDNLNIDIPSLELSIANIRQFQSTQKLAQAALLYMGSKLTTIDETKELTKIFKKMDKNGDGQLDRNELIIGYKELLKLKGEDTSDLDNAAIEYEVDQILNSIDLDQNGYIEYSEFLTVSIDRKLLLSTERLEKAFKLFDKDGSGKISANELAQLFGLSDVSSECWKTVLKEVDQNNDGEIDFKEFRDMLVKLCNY

UniProt Q8I3T1 = target: UniProt Q8I3T1
UniProt Q76NN6 = target: UniProt Q76NN6
UniProt Q8II60 = target: UniProt Q8II60
UniProt Q8IIS9 = target: UniProt Q8IIS9
UniProt C6KTC6 = target: UniProt C6KTC6
UniProt Q8I5M2 = target: UniProt Q8I5M2
UniProt Q8IM66 = target: UniProt Q8IM66
UniProt Q8IES0 = target: UniProt Q8IES0
UniProt Q8I415 = target: UniProt Q8I415
UniProt Q8ILH5 = target: UniProt Q8ILH5
UniProt Q8II27 = target: UniProt Q8II27
UniProt Q8I3J0 = target: UniProt Q8I3J0
UniProt Q8IJI0 = target: UniProt Q8IJI0
UniProt Q8IHR4 = target: UniProt Q8IHR4
UniProt Q76NL8 = target: UniProt Q76NL8
Chain of UniProt Q76NL8 (Q76NL8 whole entry): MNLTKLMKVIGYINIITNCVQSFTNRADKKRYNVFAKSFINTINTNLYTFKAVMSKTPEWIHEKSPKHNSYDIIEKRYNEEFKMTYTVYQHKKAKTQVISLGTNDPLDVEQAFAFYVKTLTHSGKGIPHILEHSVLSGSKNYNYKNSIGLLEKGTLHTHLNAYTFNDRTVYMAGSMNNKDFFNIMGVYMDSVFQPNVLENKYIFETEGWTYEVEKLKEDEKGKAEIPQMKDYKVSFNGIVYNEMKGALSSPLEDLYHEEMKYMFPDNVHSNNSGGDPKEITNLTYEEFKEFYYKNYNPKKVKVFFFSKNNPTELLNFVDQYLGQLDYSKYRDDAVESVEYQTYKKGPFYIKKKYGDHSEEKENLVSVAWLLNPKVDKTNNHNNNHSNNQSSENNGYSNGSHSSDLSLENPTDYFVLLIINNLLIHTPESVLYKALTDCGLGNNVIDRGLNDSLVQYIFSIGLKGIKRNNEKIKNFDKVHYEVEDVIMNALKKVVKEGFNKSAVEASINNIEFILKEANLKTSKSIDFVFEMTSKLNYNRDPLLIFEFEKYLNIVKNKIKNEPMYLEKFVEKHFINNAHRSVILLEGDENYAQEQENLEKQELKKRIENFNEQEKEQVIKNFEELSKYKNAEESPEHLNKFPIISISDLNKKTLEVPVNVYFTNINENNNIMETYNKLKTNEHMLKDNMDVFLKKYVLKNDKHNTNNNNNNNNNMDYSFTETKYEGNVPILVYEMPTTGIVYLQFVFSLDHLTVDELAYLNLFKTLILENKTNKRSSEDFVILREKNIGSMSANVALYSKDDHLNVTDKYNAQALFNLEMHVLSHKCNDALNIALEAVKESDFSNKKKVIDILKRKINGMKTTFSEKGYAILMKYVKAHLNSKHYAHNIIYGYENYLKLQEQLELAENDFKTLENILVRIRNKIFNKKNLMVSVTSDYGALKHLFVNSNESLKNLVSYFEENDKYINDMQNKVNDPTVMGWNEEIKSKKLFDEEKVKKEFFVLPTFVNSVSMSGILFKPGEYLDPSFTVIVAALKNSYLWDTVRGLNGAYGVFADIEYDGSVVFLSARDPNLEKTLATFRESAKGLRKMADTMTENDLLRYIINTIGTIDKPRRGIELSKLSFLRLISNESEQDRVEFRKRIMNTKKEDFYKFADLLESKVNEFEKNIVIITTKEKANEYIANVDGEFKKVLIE

UniProt C6KT56 = target: UniProt C6KT56
UniProt O77375 = target: UniProt O77375
UniProt Q8IEN3 = target: UniProt Q8IEN3
UniProt Q8IAW5 = target: UniProt Q8IAW5
UniProt Q8IBH7 = target: UniProt Q8IBH7
Chain of UniProt Q8IBH7 (Q8IBH7 whole entry): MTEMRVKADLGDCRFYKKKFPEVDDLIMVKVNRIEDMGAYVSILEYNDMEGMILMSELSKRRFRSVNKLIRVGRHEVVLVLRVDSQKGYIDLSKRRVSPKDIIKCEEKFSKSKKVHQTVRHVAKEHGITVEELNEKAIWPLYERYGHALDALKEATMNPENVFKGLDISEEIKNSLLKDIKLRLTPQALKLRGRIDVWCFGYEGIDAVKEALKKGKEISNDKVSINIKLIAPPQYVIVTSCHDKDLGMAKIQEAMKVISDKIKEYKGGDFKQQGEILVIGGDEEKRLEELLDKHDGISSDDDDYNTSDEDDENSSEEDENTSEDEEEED
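Further: native unpurified kinases from lysate captured on beads bearing immobilized kinase inhibitors, with bead-bound kinases quantified by mass spectrometry across compound doses.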

O=c1[nH]c2ccc(Cl)cc2c(NC2CN3CCC2CC3)c1-c1nc2ccccc2[nH]1 (stereo unspecified) [CHIR-124]
IC50 (UniProt Q8IDF0): > 20 µM
IC50 (UniProt Q9U0K8): 5.2 µM
IC50 (UniProt Q8I5B6): > 20 µM
IC50 (UniProt Q8IB44): > 20 µM
IC50 (UniProt Q8IJD0): > 20 µM
IC50 (UniProt Q8ILQ8): > 20 µM
IC50 (UniProt Q8I603): > 20 µM
IC50 (UniProt Q8IHY0): > 20 µM
IC50 (UniProt Q8I3X2): > 20 µM
IC50 (UniProt Q8IDR5): > 20 µM
IC50 (UniProt Q9TY96): > 20 µM
IC50 (UniProt O96260): > 20 µM
IC50 (UniProt Q8ID85): > 20 µM
IC50 (A0A146LZZ4): > 20 µM
IC50 (UniProt Q8IJI7): > 20 µM
IC50 (UniProt C0H551): > 20 µM
IC50 (UniProt Q8IIH7): > 20 µM
IC50 (UniProt Q8IK12): > 20 µM
IC50 (UniProt O96153): > 20 µM
IC50 (UniProt Q8ID49): > 20 µM
IC50 (UniProt Q8IB60): > 20 µM
IC50 (UniProt Q8IJS7): > 20 µM
IC50 (UniProt Q8IE09): > 20 µM
IC50 (UniProt Q8IJW4): > 20 µM
IC50 (UniProt Q8I4X0): > 20 µM
IC50 (UniProt Q8I3F1): > 20 µM
IC50 (UniProt Q8IDZ9): > 20 µM
IC50 (UniProt Q8I616): > 20 µM
IC50 (UniProt Q8IBN1): > 20 µM
IC50 (UniProt Q8IC35): > 20 µM
IC50 (UniProt Q8IBS5): > 20 µM
IC50 (UniProt Q8I3T1): > 20 µM
IC50 (UniProt Q76NN6): > 20 µM
IC50 (UniProt Q8II60): > 20 µM
IC50 (UniProt Q8IIS9): > 20 µM
IC50 (UniProt C6KTC6): > 20 µM
IC50 (UniProt Q8I5M2): > 20 µM
IC50 (UniProt Q8IM66): > 20 µM
IC50 (UniProt Q8IES0): > 20 µM
IC50 (UniProt Q8I415): > 20 µM
IC50 (UniProt Q8ILH5): > 20 µM
IC50 (UniProt Q8II27): > 20 µM
IC50 (UniProt Q8I3J0): > 20 µM
IC50 (UniProt Q8IJI0): > 20 µM
IC50 (UniProt Q8IHR4): > 20 µM
IC50 (UniProt Q76NL8): > 20 µM
IC50 (UniProt C6KT56): > 20 µM
IC50 (UniProt O77375): > 20 µM
IC50 (UniProt Q8IEN3): > 20 µM
IC50 (UniProt Q8IAW5): > 20 µM
IC50 (UniProt Q8IBH7): > 20 µM
